Results published in BindingDB's records for doi:10.1021/acsmedchemlett.0c00405 (University of Oxford, 2020).

assay: Modulation of human utrophinA expressed in mouse H2K-mdx utrnA-luc cells assessed as upregulation of utrophin production after 24 hrs by luciferase reporter gene assay

SMILES	EC50
CCP(=O)(OC)c1ccc2oc(-c3ccccc3C(F)F)nc2c1 (stereo not given)	1260 nM
CCP(=O)(OC)c1ccc2oc(-c3cccc(C(F)F)c3)nc2c1 (stereo not given)	890 nM
CCP(=O)(OC)c1ccc2oc(-c3ccc(F)cc3C(F)F)nc2c1 (stereo not given)	580 nM
CCP(=O)(OC)c1ccc2oc(-c3cncc(C(F)(F)F)c3)nc2c1 (stereo not given)	4170 nM
CCP(=O)(OC)c1ccc2oc(-c3cncc(C(F)F)c3)nc2c1 (stereo not given)	5900 nM
CCP(=O)(OC)c1ccc2nc(-c3cncc(C(F)(F)F)c3)oc2c1 (stereo not given)	> 50000 nM
CCP(=O)(OC)c1ccc2oc(-c3cccc(OC(F)F)c3)nc2c1 (stereo not given)	677 nM
CCP(=O)(OC)c1ccc2nc(-c3ccc(C(F)F)cc3)oc2c1 (stereo not given)	1900 nM
CCP(=O)(OC)c1ccc2nc(-c3cccc(OC(F)F)c3)oc2c1 (stereo not given)	> 50000 nM
CCP(=O)(OC)c1ccc2oc(-c3ccc(C(F)F)cc3)nc2c1 (stereo not given)	750 nM

Now those with a lower EC50, led by results:

EC50	SMILES
157 nM	CCP(=O)(OC)c1ccc2oc(-c3cccc(OC)c3)nc2c1 (stereo not given)
530 nM	CCP(=O)(OC)c1ccc2oc(-c3ccc4c(c3)OC(F)(F)O4)nc2c1 (stereo not given)
309 nM	CCP(=O)(OC)c1ccc2oc(-c3ccnc(OC(F)F)c3)nc2c1 (stereo not given)
510 nM	CCP(=O)(OC)c1ccc2oc(-c3ccc(OC)cc3)nc2c1 (stereo not given)
500 nM	CCP(=O)(OC)c1ccc2nc(-c3ccccc3C(F)F)oc2c1 (stereo not given)
